# Test results published in US20030135033A1, “Compounds and methods for the identification and/ or validation of a target” (priority 2002, published 2003).
# d = 2'-deoxy (DNA); m = 2'-O-methyl
# What was measured:
# [1] = tested on: PI 3-kinase; test: Akt phosphorylation induced by PTEN GeneBlocs in 3Y1 cells in presence of PI 3-kinase inhibitor; assay type: cell-based, rat; details: 30 nM PTEN 53 or 57, 48 h, 10 μM LY294002 30 min before lysis
# [2] = tested on: Hela cells; test: Cell growth on matrigel; assay type: cell-based, human; details: 48 h transfection, then 48 to 72 h on matrigel, versus control GeneBloc
# Description: More particularly, a schematic pathway with PTEN inhibiting PI-3K activity is shown which would normally phosphorylate Akt thus leading to proliferation, survival and migration of HeLa cells as a model system for PTEN +/+ cells. FIG. 9 B presents the Western immunoblot analysis of an experiment studying the influence of PTEN specific antisense oligonucleotide or a control antisense nucleotide designated as mismatch GeneBloc™. PTEN is only present in the control sample, but is absent when PTEN-specific antisense oligonucleotides are used. The successful knockdown of PTEN causes phosphorylation of Akt, indicative of induction of the signalling pathway. […] Growth on matrigel is used as a surrogate in vitro assay for metastatic or invasive cell growth. […]
# Loss of PTEN function has been correlated with an increased metastatic growth potential in late stage human cancers (Cantley, L. C. and Neel, B. G. (1999). New insights into tumor suppression: PTEN suppresses tumor formation by restraining the phosphoinositide 3-kinase/AKT pathway. Proc Natl Acad Sci U S A 96, 4240-4245; Ali, I. U. (2000). Gatekeeper for endometrium: the PTEN tumor suppressor gene. J Natl Cancer Inst 92, 861-863). […] HeLa cells expressing an inducible version of a constitutively active PI 3-kinase, p110* […] were analyzed in parallel. […]
# [3] = tested on: MEK; test: Akt phosphorylation induced by PTEN GeneBlocs in 3Y1 cells in presence of MEK inhibitor; assay type: cell-based, rat; details: 30 nM PTEN 53 or 57, 48 h, 50 μM PD98059 30 min before lysis
# Experimental: In this experiment two different antisense oligonucleotides (PTEN 53 and PTEN 57) were used together with further compounds, namely DMSO (D), Ly294002 (Ly) and PD98059 (PD) being an inhibitor for MEK-½ kinase. More particularly, the first test was carried out using the antisense oligonucleotide PTEN 53 in combination either with DMSO, LY or PD. The same experiment was carried out using PTEN 57 also directed against PTEN mRNA, and using GBC as defined above as a control antisense oligonucleotide. More particularly, 3Y1 cells on 10 cm plates were transfected in triplicates with 30 nM of the GeneBlocs PTEN 53, 57 or with GBC for 48 h. 30 min before lysis the cells were treated with 10 μM PI 3-kinase inhibitor LY294002 (LY), 50 μM MEK inhibitor PD98059 (PD) or with the vehicle DMSO (D). The positions of p110, phosphorylated Akt (P*-Akt) and PTEN are indicated on the right. […]
# Pools of stably transfected HeLa cells in growth medium were stimulated with 200 nM 4-OHT in dimethylsulfoxide (DMSO) or with DMSO at 37° C. for 20 h. In experiments in which the effect of LY294002 or PD98059 was analyzed, the reagents were added in DMSO at 10 μg/ml or 50 μg/ml 30 min to 1 h before lysis. […]
compound,measurement,setting,value
"O=c1cc(N2CCOCC2)oc2c(-c3ccccc3)cccc12 [LY294002, 2-(4-morpholinyl)-8-phenylchromone]",increase in Akt phosphorylation induced by the PTEN GeneBlocs,[1],completely abrogated
"cuggaucAGAGTCAGTgguguca (CUGGAUCAGAGTCAGTGGUGUCA; sugars from the 5' end m7 d9 m7, backbone and methylation of C not given here; DNA gap phosphorothioate-linked, ends capped, inverted abasic or similar, further chemistry not fully specified) [PTEN 52, third generation antisense oligonucleotide (GeneBloc) against PTEN]",growth on matrigel,[2],increased potential to form network structures on matrigel and grew better
COc1cccc(-c2cc(=O)c3ccccc3o2)c1N [PD98059],increase in Akt phosphorylation induced by the PTEN GeneBlocs,[3],had no effect
